# Experimental data from US9328125B2, “Bivalent AMPA receptor positive allosteric modulators” (The Board of Regents of the University of Texas System, priority 2012, dated 2016).
# Like-named read-outs stand apart in the source and are kept apart here.
# Columns and labels:
# morphine tolerance = assay: Morphine tolerance, tail-flick test; assay type: in vivo, mouse; conditions: 10 mg/kg
# Experimental: The tail-flick test was used to determine basal nociception and morphine antinociception as described previously (Wang et al., J Neurosci 21:1779-86, 2001; Tang et al., J Pharmacol Exp Ther 317:901-909, 2006). In brief, One third of the distal portion of mouse tail was immersed into a water bath maintained at 52° C., and the latency of a quick tail-flick response was recorded. Morphine-antinociception was evaluated 30 min after a test dose of morphine (10 mg/kg s.c. unless otherwise stated) and is expressed as the percentage of maximal possible effect (MPE). MPE %=100%×(postdrug latency−predrug latency)/(cutoff−predrug latency). A 12-s cutoff time was used to prevent tissue damage (FIG. 9A and FIG. 10A).
# (§1) G. Chronic Opioid Tolerance and Dependence.
# (§2) To induce chronic opioid tolerance and dependence, mice were treated with morphine (10 mg/kg s.c., given at 8:00 AM and 6:00 PM) for 5 days (Herz and Teschemacher, Experientia 29:64-65, 1973). Control mice received an equal number and volume of injections with saline. Morphine tolerance and naloxone-precipitated withdrawal were evaluated. Haloperidol (0.1-1.0 mg/kg i.p. or p.o.) was given 30 min before the test dose of morphine or naloxone (FIG. 9B and FIG. 10B).
# AMPA receptor = assay: Glutamate (100 μM)-evoked calcium influx in DIV9 dissociated rat forebrain neurons; assay type: cell-based; conditions: for EC50 / Emax (%) / pEC50 (-logEC50): Glutamate (100 μM)-evoked Ca2+ influx; for enhancement of glutamate-evoked calcium influx, in words: glutamate 100 μM, DIV9 dissociated rat forebrain neurons cultured on PND1
# Text: Fluorometric readings were taken from each well every 1.7 seconds for 20 seconds before any addition to record baseline value and for 70 seconds after addition of any compound(s) to monitor the induced changes of calcium influx. Each well's peak fluorescence reading after addition of compound(s) represents effect of a certain concentration of a given compound(s) after subtracting the average baseline fluorescence. Peak fluorometric reading from duplicate or triplicate wells was averaged, and represents the effect of a certain concentration on calcium influx after subtracting control value. […] points were fitted with a sigmoidal function (bottom asymptote=100, nHill=1) by using Prism from GraphPad (San Diego, Calif.) to determine the compound's EC50 (affinity or potency). Each compound's EC50 was summarized from at least 3 individual experiments and presented as the mean±SE.
# [1] = tested on: PCP-induced cleaved caspase-3 immunoreactive neurons in frontal cortex (M2/1); assay: Image analysis of cleaved caspase-3 immunoreactive neurons in frontal cortex (M2/1) of PND7 rats exposed to PCP; assay type: in vivo, rat
# Experimental: Cleaved caspase-3 immunoreactive neurons, 8 hrs on PND7 after Saline (A) or PCP (10 mg/kg, sc, B-E) without (A-B) or with (C-E) pretreatment (30 min prior to PCP) of HJC-1-22 (C, 0.1 mg/kg; D, 1 mg/kg; E, 10 mg/kg, sc) were shown.
# C. Image Analysis of Cleaved Caspase-3 Immunoreactive Neurons
# PCP induces developmental neuroapoptosis via caspase-3 activation in vulnerable neurons (Wang et al., Neuropsychopharmacology 32(5): 1178-1194, 2007). Caspase-3 activation in vivo can be observed by immunohistochemistry with specific antibodies against cleaved caspase-3 protein and quantified by image analysis of cleaved caspase-3 immunoreactive neurons in specific brain region(s) or sub-region(s) in developing brain. Compounds showing significant AMPAR PAM effects on glutamate-induced calcium influx in HEK293 expressing hGluA1i/3i and significant preventive effect on PCP-induced caspase-3 enzyme activities in organotypic slices were further defined their abilities to block PCP-induced apoptosis in vivo.
# PND7 rat pups were used in the in vivo studies. […]
# In step 1, each candidate was tested in two (n=2) individual experiments by using PND7 rat pups from 2 different liters. […] The activity percentages (%) of each dose vs. PCP were calculated to estimate its IC50 which was used to determine its in vivo effective dose range for the step 2 study. […]
# [2] = tested on: morphine physical dependence; assay: Morphine physical dependence, naloxone-precipitated withdrawal; assay type: in vivo, mice; conditions: 10 mg/kg
# Experimental: as §1, §2
# [3] = tested on: PCP-induced caspase-3 activity; assay: PCP-induced caspase-3 enzyme activity in organotypic cortical-striatal slices, modulation of the (±)AMPA effect; assay type: cell-based, rat; conditions: for modulation of AMPA effect on PCP-induced caspase-3 activity, in words: AMPA 1 μM, FIG. 2A-2B; for IC50: Rattus norvegicus
# Experimental: The inventors have designed and chemically synthesized a class of new bivalent AMPAR ligands (see examples in Table 1). […] The neuroprotective effect of (±)APMA on PCP-induced caspase-3 activities was potentiated by cyclothiazide (CTZ) and aniracetam, two existing AMPAR ligands (approximate IC50 1-3 μM, FIG. 2A for CTZ).
# B. Measurement of Caspase-3 Enzyme Activities
# Compounds showing significant AMPAR PAM effects on glutamate-induced calcium influx in HEK293 expressing hGluA1i/3i were further tested for their ability to prevent PCP-induced caspase-3 activation in our established in vitro organotypic slice model (Wang et al., Neuropsychopharmacology 32(5): 1178-1194, 2007). Initial screening includes two steps. In step one, all candidates were tested in a single experiment to determine an appropriate approximate concentration range for its effect on PCP-induced caspase-3 activity by adding eight serial concentrations of the compound at log intervals (0, 0.0001-10 μM). Compounds showing promising ˜IC50 (<10 μM) and slope (0.8-1.20) was further screened in a paradigm in which each selected compound was tested in 3 independent experiments to determine its IC50 and slope values by adding eight serial concentrations of the compound at approximately half-log intervals. For all initial screening experiments, rat organotypic brain slice cultures were prepared as previously described (Wang et al., Neuropsychopharmacology 32(5): 1178-1194, 2007). All experiments were executed on DIV10. In each experiment, the slices were pre-treated with the solution vehicle (0.1% DMSO) or 6 serial concentrations of the new compounds for 15 min, followed with (±)APMA (1 μM) (or its vehicle, 0.1% DMSO) for another 15 min. PCP (3 μM) or its vehicle (saline) was added and incubation continued for 6 hrs. The superficial cortical layers of each treated slice were harvested with the aid of an inverted microscopy and placed into ice-cold lysis buffer. Supernatants were collected and caspase-3 activity measured as described previously (Wang et al., Neuropsychopharmacology 32(5): 1178-1194, 2007). Caspase-3 activity was measured over 60 min and calculated as the difference between the substrate degradation rate in samples containing and those not containing Z-DEVD-FMK, a selective caspase-3 inhibitor. Data are expressed as DEVDase activity (AFC pmoles/mg protein/60 min). Protein was measured by the bicinchoninic acid (BCA) technique (Smith et al., 1985), using bovine serum albumin as standards. Each activity measurement was averaged from duplicate samples. Baseline activity (saline treated) was subtracted from all treatments. The caspase-3 activity of in slices incubated with PCP alone served as a positive control. Each compound's activity was normalized to the protective effect of (±)AMPA against PCP (100%). IC50 and slope values were analyzed and determined with the SigmaPlot four-parameter equation as described previously (Petukhov et al., J Med Chem 47(12): 3009-3018, 2004). Each compound's IC50 and slope values were determined from data in at least 3 individual experiments. Group data is reported as mean±SEM.
# [4] = organotypic slices, (±)AMPA 1 μM, PCP 3 μM, read-out: IC50, modulation of (±)AMPA effect on PCP-induced caspase-3 activity
# [5] = existing AMPAR ligands, FIG. 2A for CTZ, read-out: approximate IC50, potentiation of neuroprotective effect of (±)AMPA on PCP-induced caspase-3 activities
EC50 (AMPA receptor),pEC50 (-logEC50) (AMPA receptor),Compound,Emax (%) (AMPA receptor),"enhancement of glutamate-evoked calcium influx, in words (AMPA receptor)","modulation of AMPA effect on PCP-induced caspase-3 activity, in words ([3]; PCP 3 μM)",other results
8.76 nM,8.06,"CC(C)S(=O)(=O)NC[C@H](C)c1ccc(-n2ccc3ncccc32)cc1 [HJC0229, Propane-2-sulfonic acid [2-(4-pyrrolo[3,2-b]pyridin-1-yl-phenyl)-propyl]amide]",168.9%,,,
4.02 nM,8.39,"CC(C)S(=O)(=O)NC[C@H](C)c1ccc(-c2ccc(CCN3CCCC3=O)cc2)cc1 [HJC0173, Propane-2-sulfonic acid (2-{4′-[2-(2-oxo-pyrrolidin-1-yl)-ethyl]-biphenyl-4-yl}-propyl)amide]",127.1%,,,
0.06 nM,10.21,"CC(C)S(=O)(=O)NC[C@H](C)c1ccc(-n2ccc3cc(C(=O)N4CCCC4)ccc32)cc1 [HJC0210, Propane-2-sulfonic acid (2-{4-[5-(pyrrolidine-1-carbonyl)-indol-1-yl]-phenyl}-propyl)amide]",157.5%,enhanced glutamate (100 μM)-evoked calcium influx in a concentration-dependent manner,,

# The next lines start with the molecule.
Compound,EC50 (AMPA receptor),pEC50 (-logEC50) (AMPA receptor),Emax (%) (AMPA receptor),"enhancement of glutamate-evoked calcium influx, in words (AMPA receptor)","modulation of AMPA effect on PCP-induced caspase-3 activity, in words ([3]; PCP 3 μM)",other results
"CC(C)S(=O)(=O)NC[C@H](C)c1ccc(-c2ccnc(C(=O)N3CCCC3)c2)cc1 [HJC-1-22, Propane-2-sulfonic acid (2-{4-[2-(pyrrolidine-1-carbonyl)-pyridin-4-yl]phenyl}-propyl)-amide]",6.53 nM,8.28,170.0%,enhanced glutamate (100 μM)-evoked calcium influx in a concentration-dependent manner,displayed more potent activity than LY451395,"reversal of established morphine tolerance (morphine tolerance; FIG. 9A): reversed established morphine tolerance; prevention of development of morphine tolerance (morphine tolerance; FIG. 10A): prevented the development of morphine tolerance; prevention of PCP (10 mg/kg)-induced caspase-3 activation in frontal cortex ([1]; 10 mg/kg sc, 30 min prior to PCP (10 mg/kg, sc)): 85%; effect on PCP-induced cleaved caspase-3 immunoreactive neurons in frontal cortex (M2/1), in words ([1]; 0.1, 1, 10 mg/kg sc, 30 min prior to PCP, 8 hrs): significantly reduced PCP-induced cleaved caspase-3 immunoreactive neurons; reversal of morphine physical dependence ([2]; FIG. 9B): partially reversed physical dependence; prevention of morphine physical dependence ([2]; FIG. 10B): partially prevented physical dependence; IC50 [3, 4]: 15 nM"
"CC(C)S(=O)(=O)NC[C@H](C)c1ccc(-c2ccc(CCNS(C)(=O)=O)cc2)cc1 [LY451395, reference compound]",,,,enhanced glutamate (100 μM)-evoked calcium influx in a concentration-dependent manner,,
"COc1ccc(C(=O)N2CCCC2=O)cc1 [aniracetam, reference compound]",,,,,,"IC50 [3, 5]: 1000 to 3000 nM"
"NS(=O)(=O)c1cc2c(cc1Cl)NC(C1CC3C=CC1C3)NS2(=O)=O (centres unmarked) [CTZ, cyclothiazide, reference compound]",,,,,concentration-dependent fashion,"IC50 [3, 5]: 1000 to 3000 nM"
"CC(C)S(=O)(=O)NC[C@H](C)c1ccc(-n2ccc3cc(C(=O)N4CCCCC4)ccc32)cc1 [HJC-1-24, Propane-2-sulfonic acid (2-{4-[5-(piperidine-1-carbonyl)-indol-1-yl]-phenyl}-propyl)amide]",,,,,displayed more potent activity than LY451395,"IC50 [3, 4]: 5 nM; fold more potent than CTZ (IC50, caspase-3 activity) ([3]; versus CTZ): at least 200 fold"
